# Like-named read-outs stand apart in the source and are kept apart here.
# How the values were obtained:
# MAO-B = tested on: MAO-B; set-up: method as in PMID 19168123; settings: isolated compound at 10 µM; cited from earlier work
# CYP2C9 = CYP2C9 (Homo sapiens, UniProt P11712); assay: CYP direct inhibition in human liver microsomes
# Procedure: Test compound/controls working solution or DMSO were added in 238.5 µL of liver microsomes working solution, mixed well by pipetting several times and pre-incubated in a 37 °C shaking water bath for 5 min. Following the pre-incubation, 60 µL of NADPH working solution were added, mixed well by pipetting several times, and incubated in a 37 °C shaking water bath for 10 min. Following the incubation, 300 µL of quenching solution were immediately added and vortexed for ~20 s to mix. All samples were centrifuged at 4000 rpm for 15 min at 4 °C and then the supernatant was transferred for LC-MS/MS analysis. IC50 values were determined by the Hill slope equation using Graph Pad Prism.
# (§1) For competitive and time-dependent CYP inhibition, the peak area ratios (PAR) of analyte/internal standard were used to semi-quantitatively determine the concentration of acetaminophen (CYP1A2 activity), 4’-hydroxydiclofenac (CYP2C9), 4’-hydroxymephenytoin (CYP2C19), dextrorphan (CYP2D6), 1’-hydroxymidazolam (CYP3A4), 6β-hydroxytestosterone (CYP3A4), hydroxybupropion (CYP2B6), and N-desethylamodiaquine (CYP2C8), with terfenadine as the internal standard by LC-MS/MS method. The HPLC-MS system utilized an Acquity UPLC system and Sciex API 4000 mass spectrometer in ESI positive mode, with quantitation employing MRM. Samples were injected onto an Atlantis T3 5 μM column (2.1 x 50 mm). […]
# CYP2C19 [1] = target: T1, CYP2C19 (Homo sapiens, UniProt P33261); settings: microsomes
# Procedure: (§2) Incubation without 30 min pre-incubation, 178.5 µL of liver microsomes working was pre-incubated in a 37 °C water bath for 30 min. After the pre-incubation, 1.5 μL of test compound or control compound working solution, 60 μL of substrate working solution, and 60 μL of NADPH working solution were added; then, the reaction mixture was mixed by pipetting up and down and then incubated at 37 °C for 10 min. Incubation with 30 min pre-incubation. Next, 1.5 μL of test compound or control compound working solutions and 60 μL of NADPH working solution were added into 178.5 μL of liver microsome working solution, then the reaction mixture was mixed by pipetting up and down and then pre-incubated at 37 °C for 30 min. […]
# (§3) For competitive and time-dependent CYP inhibition, the peak area ratios (PAR) of analyte/internal standard were used to semi-quantitatively determine the concentration of acetaminophen (CYP1A2 activity), 4’-hydroxydiclofenac (CYP2C9), 4’-hydroxymephenytoin (CYP2C19), dextrorphan (CYP2D6), 1’-hydroxymidazolam (CYP3A4), 6β-hydroxytestosterone (CYP3A4), hydroxybupropion (CYP2B6), and N-desethylamodiaquine (CYP2C8), with terfenadine as the internal standard by LC-MS/MS method. The HPLC-MS system utilized an Acquity UPLC system and Sciex API 4000 mass spectrometer in ESI positive mode, with quantitation employing MRM. […]
# CYP1A2 = target: T2, CYP1A2 (Homo sapiens, UniProt P05177); assay: Time-dependent inhibition (IC50 shift) in human liver microsomes; format: in vitro ADME
# T2 construct: Mixed human liver microsomes were purchased from BioreclamationIVT; tissue BioreclamationIVT; host or cells: mixed-donor pool of human liver microsomes (Lot ZZQ)
# T2 sequence (P05177 1-516): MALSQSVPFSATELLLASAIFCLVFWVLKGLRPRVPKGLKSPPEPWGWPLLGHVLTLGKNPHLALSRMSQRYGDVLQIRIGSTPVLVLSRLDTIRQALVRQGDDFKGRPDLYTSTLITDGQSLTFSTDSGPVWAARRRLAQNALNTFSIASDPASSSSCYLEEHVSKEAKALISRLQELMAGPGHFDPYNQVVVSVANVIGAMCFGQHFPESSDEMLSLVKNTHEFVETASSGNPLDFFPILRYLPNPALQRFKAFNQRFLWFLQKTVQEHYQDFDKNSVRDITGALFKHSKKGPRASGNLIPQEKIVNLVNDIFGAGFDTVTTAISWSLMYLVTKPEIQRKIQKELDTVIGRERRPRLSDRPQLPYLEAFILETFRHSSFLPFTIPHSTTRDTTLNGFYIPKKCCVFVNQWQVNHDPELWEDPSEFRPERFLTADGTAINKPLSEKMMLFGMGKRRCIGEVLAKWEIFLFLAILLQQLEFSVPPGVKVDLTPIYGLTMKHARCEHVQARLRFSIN
# Procedure: Incubation without 30 min pre-incubation, 178.5 µL of liver microsomes working was pre-incubated in a 37 °C water bath for 30 min. After the pre-incubation, 1.5 μL of test compound or control compound working solution, 60 μL of substrate working solution, and 60 μL of NADPH working solution were added; then, the reaction mixture was mixed by pipetting up and down and then incubated at 37 °C for 10 min. Incubation with 30 min pre-incubation. Next, 1.5 μL of test compound or control compound working solutions and 60 μL of NADPH working solution were added into 178.5 μL of liver microsome working solution, then the reaction mixture was mixed by pipetting up and down and then pre-incubated at 37 °C for 30 min. After the pre-incubation, 60 μL of substrate working solution was added, then the reaction mixture was mixed by pipetting up and down and then incubated at 37 °C for 10 min. Following the incubation, 300 μL of quenching solution was added into the corresponding wells to terminate the reaction. All the above samples were vortexed for 1 min and centrifuged at 4000 rpm, 4 °C for 15 min. After centrifugation, the supernatant was removed for further LC-MS/MS analysis.
# as §1
# CYP2B6 = target: T3, CYP2B6 (Homo sapiens, UniProt P20813); assay: biochemical
# T3 sequence (P20813 1-491): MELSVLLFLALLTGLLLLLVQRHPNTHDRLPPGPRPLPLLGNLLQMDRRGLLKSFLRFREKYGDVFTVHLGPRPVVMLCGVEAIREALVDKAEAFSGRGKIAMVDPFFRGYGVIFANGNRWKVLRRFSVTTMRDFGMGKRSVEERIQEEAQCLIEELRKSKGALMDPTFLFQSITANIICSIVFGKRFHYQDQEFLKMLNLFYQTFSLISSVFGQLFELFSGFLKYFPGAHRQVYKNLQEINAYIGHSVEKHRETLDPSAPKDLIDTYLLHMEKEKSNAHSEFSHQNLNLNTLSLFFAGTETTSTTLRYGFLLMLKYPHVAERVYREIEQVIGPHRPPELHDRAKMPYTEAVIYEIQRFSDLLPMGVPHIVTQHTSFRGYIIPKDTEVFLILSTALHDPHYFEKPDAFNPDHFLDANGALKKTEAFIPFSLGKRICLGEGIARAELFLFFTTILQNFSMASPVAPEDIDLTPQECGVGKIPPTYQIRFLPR
# Procedure: as §2, §3
# CYP2C19 [2] = target: T1, CYP2C19; assay: Time-dependent inhibition (IC50 shift) in human liver microsomes
# Procedure: as §2, §3
# CYP3A4 = assay: in vitro; settings: human, Mean Fold Induction
# [3] = set-up: method as in PMID 29796228; settings: rat, cited from earlier work
# T1 sequence (P33261 whole entry): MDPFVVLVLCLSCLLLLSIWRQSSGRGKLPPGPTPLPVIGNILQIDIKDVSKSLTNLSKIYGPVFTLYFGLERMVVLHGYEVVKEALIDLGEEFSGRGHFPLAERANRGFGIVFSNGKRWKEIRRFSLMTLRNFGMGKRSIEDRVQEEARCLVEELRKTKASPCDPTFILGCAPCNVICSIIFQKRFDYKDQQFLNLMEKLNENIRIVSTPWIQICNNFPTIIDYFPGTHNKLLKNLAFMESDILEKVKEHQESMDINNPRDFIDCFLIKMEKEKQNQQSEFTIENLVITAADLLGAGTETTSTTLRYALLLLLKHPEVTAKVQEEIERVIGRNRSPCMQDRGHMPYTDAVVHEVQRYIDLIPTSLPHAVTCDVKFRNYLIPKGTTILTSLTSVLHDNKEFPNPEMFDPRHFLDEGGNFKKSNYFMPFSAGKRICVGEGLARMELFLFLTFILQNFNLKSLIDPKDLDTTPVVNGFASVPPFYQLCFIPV
# Chain of CYP2C9 (P11712 whole entry): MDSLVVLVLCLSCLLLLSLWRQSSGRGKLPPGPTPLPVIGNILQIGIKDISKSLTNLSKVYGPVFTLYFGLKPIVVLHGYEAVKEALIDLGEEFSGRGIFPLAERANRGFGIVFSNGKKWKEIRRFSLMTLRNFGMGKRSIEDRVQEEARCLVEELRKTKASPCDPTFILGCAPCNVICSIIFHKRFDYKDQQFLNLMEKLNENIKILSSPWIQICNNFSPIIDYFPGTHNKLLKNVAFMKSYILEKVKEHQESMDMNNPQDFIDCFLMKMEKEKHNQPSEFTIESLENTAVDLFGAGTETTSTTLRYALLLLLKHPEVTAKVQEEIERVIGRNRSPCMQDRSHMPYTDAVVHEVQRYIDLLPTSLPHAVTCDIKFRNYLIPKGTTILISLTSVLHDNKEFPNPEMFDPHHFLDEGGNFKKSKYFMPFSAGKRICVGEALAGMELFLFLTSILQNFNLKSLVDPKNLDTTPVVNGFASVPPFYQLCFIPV
smiles,measurement,setting,value
OC[C@H]1O[C@@H](OCCc2ccc(O)cc2)[C@H](O)[C@@H](O)[C@@H]1O [Salidroside],inhibition of MAO-B,MAO-B,35.8%
same,IC50,CYP2C9,> 50 µM
same,IC50 Shift,CYP2C19 [1],no shift
same,IC50 Shift,"CYP1A2; IC50 without/with preincubation, >[…] positive for TDI",no shift
same,IC50,"CYP1A2; probe phenacetin, positive control not given, likely furafylline",> 50 µM
same,IC50,"CYP1A2; read-out: IC50 after 30 min Preincubation with NADPH, probe phenacetin, positive control not given, likely furafylline",> 50 µM
same,IC50,CYP2B6,> 50 µM
same,IC50,CYP2C19 [2],> 50 µM
same,"fold induction at 48 h, 1 µM",CYP3A4,0.7
same,clearance,[3]; 12 mg/kg IV,21 mL/min/kg
same,oral bioavailability (fb),[3]; 12 mg/kg oral,32.1%
same,observed Cmax,[3]; oral 12 mg/kg,4300 ng/mL
same,Cmax,"[3]; oral 12 mg/kg, read-out: observed Cmax",14.3 µM

# Source: article PMC10489644, “In Vitro Evaluation of the Potential for Drug Interactions by Salidroside” (Nutrients, 2023)
